Laboratory results as given in patent US20050069907A1, “Methods for using double-mutant RNA polymerases with reduced discrimination between non-canonical and canonical nucleoside triphosphates” (priority 2002, published 2005).
Marks after values point to notes of the source that are not given here.

Legend:
[1] = tested on: supercoiled pT75; assay: rNTP/dNTP selectivity assay: labeled rNTP vs dNTP incorporation with 4 unlabeled rNTPs; assay type: biochemical
Method: Transcription reactions: Transcription reactions were carried out in 40 mM Tris-Cl pH 8.0, 15 mM MgCl2, and 5 mM DTT or 20 mM Manganese Citrate pH 8.0, 5 mM DTT at 37° C. Template, polymerase, and NTP concentrations were as indicated in the legends to the figures and tables. Relative activity determinations were made by taking 4 μl aliquots of reactions at 5, 10, and 20 minute time points and spotting on to DE81 filter paper. Unincorporated nucleotides were separated from incorporated nucleotides by washing the filter paper with 0.5 M KH2PO4 pH 7.0 and retained radioactive nucleotide was quantitated with a Molecular Dynamics phosphorimager. To evaluate rNTP/dNTP selectivity, reactions were run with 4 rNTPs and pT75 as template and α-P^32 rNTPs or α-P^32 dNTPs were used to label the transcripts. The relative rate of incorporation of an rNTP vs. its cognate dNTP was determined from the relative percentages of labeled rNTP vs. dNTP incorporated into DE81 retainable RNA at 5, 10, and 20 minute time points. Apparent miscoding frequencies were determined similarly, though in this instance the template was a single-stranded homopolymer and the reaction contained the complementary unlabeled rNTP, and complementary α-P^32 rNTP or one of the 3 non-complementary α-P^32 rNTPs. The relative percentages of labeled complementary vs. non-complementary rNTPs incorporated at 5, 10 and 20 minute time points gave an apparent miscoding rate. The rNTP/dNTP selectivity assay was used to test the following T7 RNAP mutants for effects on substrate discrimination: D537S, D537E, S539A, R5S1S, D552S, R627S, K631S, L637A, Y639S, Y639F, Y639A, G640A, F644A, G645A, Q649S, […], H811S, H811A, D812A, D812E, D812S, D812N, D879E+ΔF882+ΔA883, D879E+A881T+ΔA883, D879E+F884+A885, D879E+F882Y, D879E+ΔA883, D879E+F882W, D879E.
Relative selectivity of the mutant and W.T. polymerases for dNTPs and rNTPs: FIGS. 1-3 present a qualitative analysis of the structure of the transcripts produced by the W.T. and Y639F polymerases with various combinations of NTPs. […] To obtain a quantitative measure of the relative selectivity of the W.T. and mutant polymerases for dNTPs vs. rNTPs under conditions where transcript structure was not a complicating factor, reactions were carried out in which all 4 rNTPs were present but rNTPs or dNTPs were used to radiolabel the transcripts (see Table I).
Under these conditions the unlabeled rNTPs were present in vast excess relative to the labeling NTPs so labeling dNTPs are almost always incorporated adjacent to rNTPs and into transcripts of nearly uniform rNMP structure. […] This assay was used to screen our collection of T7 RNAP active site mutants for increased dNTP utilization. In this screen dATP incorporation in transcription reactions was examined with all of these mutants using supercoiled pT75 as the template, 4 cold rNTPs, and P32-rATP or P32-dATP to label. […] It has been reported that use of Mn^2+ instead of Mg^2+ decreases substrate discrimination and increases miscoding for a number of polymerases (Tabor and Richardson, 1989; Nivogi and Feldman, 1981). Therefore, the rNTP/dNTP selectivity of the mutant and W.T. enzymes were examined in Mn^2+-citrate buffer (Tabor and Richardson, 1989).

[2] = tested on: HindIII-cut pT75; assay: Run-off transcription with 2′-OMe- or 2′-azido-NTPs on HindIII-cut pT75; assay type: biochemical; settings: for Reduction of run-off transcript synthesis: 2′-OMe-UTP; for Reduction of run-off transcript yields relative to 4 NTPs: 2′-azido-UTP
Method: RNAPs were prepared as described (Brieba, L G, and Sousa, R. Biochemistry, 39: 919-923, 2000). Transcription reactions were carried out for 30 min. at room temperature in 40 mM Tris-Cl, pH 8.0, 6 mM MgCl2, 10 mM NaCl, 2 mM spermidine, with templates at 10^−7 M and RNAPs at 2×10^−7 M. All NTPs were used at 0.5 mM, and transcripts were labeled by inclusion of 1% v/v 800 Ci/mM […] in the reaction. Modified NTPs were from Trilink Biotechnologies. Reactions were stopped by addition of an equal volume of 90% formamide, 50 mM EDTA, 0.01% xylene cyanol, resolved by electrophoresis in 20% acrylamide, 1% bis-acrylamide, 1×TBE gels, and visualized on a Molecular Dynamics Phosphorimager.
With the pPK5 template, UMP and CMP are not incorporated into the first 9 nt of RNA. Incorporation of non-canonical NMPs during synthesis of the first 9 nt of RNA is expected to cause greater reductions in run-off transcript synthesis because the RNA is readily released from the transcription complex during this initial phase of transcription. Therefore, if incorporation of a non-canonical NMP is slow, the RNA will usually dissociate before the NMP is incorporated. […] To see whether NMPs with bulky 2′-substituents could be incorporated during the initial phase of transcription a Hind-III linearized pT75 (Tabor, S. and Richardson, C. C., “A bacteriophage T7 RNA polymerase/promoter system for controlled exclusive expression of specific genes,” Proc. Natl. Acad. Sci. USA 82:1074-1078, 1985) was used. On this template, UMP is first incorporated at +14 while CMP is incorporated at +6 and +7. In reactions with 2′-OMe-UTP run-off transcript synthesis is reduced 11-fold, 5-fold, and <2-fold with the wild-type, and the Y639F, and Y639F/H784A mutants, respectively (FIG. 2c; lanes 2, 6, 10). However, in reactions with 2′-OMe-CTP run-off transcription is undetectable with the wild-type or Y639F enzymes (FIG. 2c; lanes 3, 4, 7, 8), and is reduced ˜700-fold with Y639F/H784A (FIG. 2c; lanes 11, 12).
Run-off transcript yields in reactions with HindIII-cut pT75 and 2′-azido-UTP are reduced 18-, 8.5-, and <2-fold with wild-type and Y639F and Y639F/H784 mutants, respectively (FIG. 2d; lanes 2, 6, 10), relative to reactions with 4 NTPs (FIG. 2d; lanes 1, 5, 9). In reactions with 2′-azido-CTP, or both 2′-azido-CTP and 2′-azido-UTP, run-off transcription is undetectable with the wild-type enzyme (FIG. 2d; lanes 3, 4), is reduced 65-fold with Y639F (FIG. 2d; lanes 7, 8), but is reduced only 7-fold with Y639F/H784A (FIG. 2d; lanes 11, 12).

[3] = Mg^2+ buffer, range of 2 experiments
[4] = 2′-azido-CTP, or both 2′-azido-CTP and 2′-azido-UTP

| Substance | Reduction in selectivity for rNTPs over dNTPs relative to W.T., on average [1] | Relative selectivity rCTP/dCTP ([1]; Mg^2+ buffer) | Relative selectivity rGTP/dGTP ([1]; Mg^2+ buffer) | Relative selectivity rUTP/dTTP ([1]; Mg^2+ buffer) | Relative selectivity rATP/dATP [1, 3] | Relative selectivity rATP/dATP ([1]; Mn^2+ buffer) | Relative selectivity rCTP/dCTP ([1]; Mn^2+ buffer) | Relative selectivity rGTP/dGTP ([1]; Mn^2+ buffer) | Relative selectivity rUTP/dTTP ([1]; Mn^2+ buffer) | Reduction of run-off transcription ([2]; 2′-OMe-CTP) | Reduction of run-off transcript synthesis [2] | Reduction of run-off transcription [2, 4] | Reduction of run-off transcript yields relative to 4 NTPs [2] |
| --- | --- | --- | --- | --- | --- | --- | --- | --- | --- | --- | --- | --- | --- |
| Y639F: T7 RNAP with wild-type tyrosine at position 639 substituted by phenylalanine | ~20 fold | 2.4-2.5 | .93-1.6 | 1.7-1.9 | 8.5-10 (Mg)* | .9-1.0 (Mn)* | .55-.80 | .98-.99 | .48-.76 | undetectable | 5 fold | 65 fold | 8.5 fold |
| W.T.: wild-type T7 RNA polymerase [reference compound] |  | 110-150 | 51-67 | 22-25 | 72-83 (Mg)* | 6-14 (Mn)* | 4.3-5.1 | 4.4-6.3 | 2.3-2.8 | undetectable | 11 fold | undetectable | 18 fold |
